These results are taken from US7772241B2, “Variolin derivatives and their use as antitumor agents” (Pharma Mar S.A., priority 2001, dated 2010).

Like-named read-outs stand apart in the source and are kept apart here.

Experiment [1] deals with A-549. Briefly: Inhibition of cells growth by colorimetric (SRB) assay, A-549. Conditions: for GI50 / CC50: Homo sapiens, A549, 48 h. The method, boiled down:
(§1)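 Human tumour cells seeded at 5×10^3/well in RPMI 1640 10% FBS, attached 18 h, then exposed 48 h to samples at 10 to 10^−8 μg/ml in DMSO/EtOH/PBS (0.5:0.5:99). Growth read by SRB staining after TCA fixation, OD 490 nm, triplicate wells; GI, TGI and LC derived.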

The test system of experiment [2] is LoVo-Dox. The experiment is described as follows: Inhibition of cells growth by colorimetric (SRB) assay, LoVo-Dox. As to conditions: for GI50 / CC50: Homo sapiens, 48 h. The method, boiled down:
as §1

Consider `CSc1nccc(-c2c3cccnc3n3c(N(C(C)=O)C(C)=O)nccc23)n1` [Compound 26], for which the GI50 in experiment [1] (read-out: A-549 GI50, SRB assay, 48 hours exposure) worked out at 6.88 µM; in experiment [1] (read-out: GI50 A-549, SRB assay, 48 hours exposure), 0.706 µM; in experiment [2] (read-out: GI50 LOVO-DOX, SRB assay, 48 hours exposure) it was 1.79 µM; in experiment [2] (read-out: LOVO-DOX GI50, SRB assay, 48 hours exposure) it was 6.09 µM. The CC50 amounted to 21.5 µM in experiment [1] (read-out: A-549 LC50, SRB assay, 48 hours exposure); 16.5 µM in experiment [1] (read-out: LC50 A-549, SRB assay, 48 hours exposure); 25.5 µM in experiment [2] (read-out: LC50 LOVO-DOX, SRB assay, 48 hours exposure); 19 µM in experiment [2] (read-out: LOVO-DOX LC50, SRB assay, 48 hours exposure). For the same compound, the “A-549 TGI” value in experiment [1] (SRB assay, 48 hours exposure) is given as 1.22E−05. In experiment [1] (SRB assay, 48 hours exposure), the “TGI A-549” value is 2.93E−06. In addition, the “LOVO-DOX TGI” value in experiment [2] (SRB assay, 48 hours exposure) is 1.08E−06. For the same compound, the “TGI LOVO-DOX” value in experiment [2] (SRB assay, 48 hours exposure) worked out at 1.10E−05.
